Measurements as given in patent US5043349A, “Substituted pyrrole angiotensin II antagonists” (E. I. Du Pont de Nemours and Company, priority 1990, dated 1991).
Where two headings read alike, the source gives them in different places.

What was measured:
AII receptor = test: Angiotensin II receptor binding (displacement of 3H-AII from rat adrenal cortical microsomes); conditions: 50% displacement of specifically bound 3H-AII (2 nM), 1 hour, room temperature
Method: The hormone angiotensin II (AII) produces numerous biological responses (e.g. vasoconstriction) through stimulation of its receptors on cell membranes. […] The reaction mixture contained rat adrenal cortical microsomes (source of AII receptor) in Tris buffer and 2 nM of ^3 H-AII with or without potential AII antagonist. This mixture was incubated for 1 hour at room temperature and the reaction was subsequently terminated by rapid filtration and rinsing through glass micro-fibre filter. Receptor-bound ^3 H-AII trapped in filter was quantitated by scintillation counting.

Renal Hypertensive Rats = test: Antihypertensive effects in renal hypertensive rats (ligation of the left renal artery); format: in vivo; conditions: Rattus norvegicus
Method: This procedure increases blood pressure by increasing renin production with consequent elevation of AII levels. Compounds are administered orally and/or intravenously via a cannula in the jugular vein. Arterial blood pressure is continuously measured directly through a carotid artery cannula and recorded using a pressure transducer and a polygraph. Blood pressure levels after treatment are compared to pretreatment levels to determine the antihypertensive effects of the compounds (See Table 5).

arterial pressure = conditions: cited from earlier work
AII = conditions: cited from earlier work
[1] = iv, read-out: Antihypertensive Effects in Renal Hypertensive Rats, Intravenous Activity
[2] = po, read-out: Antihypertensive Effects in Renal Hypertensive Rats, Oral Activity

SMILES	IC50 (AII receptor) [µM]	minimal effective dose (Renal Hypertensive Rats; [1]) [mg/kg]	minimal effective dose (Renal Hypertensive Rats; [2]) [mg/kg]	also measured
CCCCc1cn(Cc2ccc(-c3ccccc3-c3nn[nH]n3)cc2)nn1 [Example 3, 4-Butyl-1-[2'-(1H-tetrazol-5-yl)-biphenyl-4-yl]methyl-1,2,3-triazoles]	6	≤ 10	≤ 100	
CCc1nnc(COC)n1Cc1ccc(-c2ccccc2C(=O)O)cc1 [Example 70, 3-Ethyl-5-methoxymethyl-4-[(2'-carboxybiphenyl-4-yl)methyl]-1,2,4-triazole]	5	≤ 10	> 100	
CCCCc1nnc(COC)n1Cc1ccc(-c2ccccc2C(=O)O)cc1 [Example 67, 3-Butyl-5-methoxymethyl-4-[(2'-carboxybiphenyl-4-yl)methyl]-1,2,4-triazole]	0.82	≤ 10	> 100	
CCCc1nnc(COC)n1Cc1ccc(-c2ccccc2C(=O)O)cc1 [Example 69, 3-Methoxymethyl-5-propyl-4-[(2'-carboxybiphenyl-4-yl)methyl]-1,2,4-triazole]	0.73	≤ 10	> 100	
CCCc1nnc(COC)n1Cc1ccc(-c2ccccc2-c2nnn[nH]2)cc1 [Example 72, 3-Methoxymethyl-5-propyl-4-[(2'-(1H-tetrazol-5-yl)biphenyl-4-yl)methyl]-1,2,4-triazole]	0.14	≤ 10	≤ 100	
CCCCc1nncn1Cc1ccc(-c2ccccc2C(=O)O)cc1 [Example 68, 3-Butyl-4-[(2'-carboxybiphenyl-4-yl)methyl]-1,2,4-triazole]	1.8	≤ 10	> 100	
CCCCc1cnnn1Cc1ccc(-c2ccccc2-c2nn[nH]n2)cc1 [Example 4]	0.3	≤ 10	≤ 100	
CCCCc1cn(Cc2ccc(-c3ccccc3C(=O)O)cc2)nn1 [Example 1, 4-Butyl-1-[(2'-carboxybiphenyl-4-yl)methyl]-1,2,3-triazole]	3	> 100	> 100	
CCCCc1nnc(CCCC)n1Cc1ccc(-c2ccccc2C(=O)O)cc1 [Example 71, 3,5-Dibutyl-4-[(2'-carboxybiphenyl-4-yl)methyl]-1,2,4-triazole]	0.82	≤ 10	> 100	
CCCCc1cc(COC)nn1Cc1ccc(-c2ccccc2C(=O)O)cc1 [Example 171, 3-Methoxymethyl-5-butyl-1-[(2'-carboxybiphenyl-4-yl)methyl]pyrazole]	0.29	≤ 10	≤ 100	
CNCC(=O)N[C@@H](CCCN=C(N)N)C(=O)N[C@H](C(=O)N[C@@H](Cc1ccc(O)cc1)C(=O)N[C@H](C(=O)N[C@@H](Cc1cnc[nH]1)C(=O)N1CCC[C@H]1C(=O)N[C@@H](C)C(=O)O)C(C)C)C(C)C [Saralasin, [Sar^1, Ala^8] AII]				effect when the pressure is not sustained by AII (arterial pressure; due to its agonistic character): generally elicits pressor effects; effect on arterial pressure when the (elevated) pressure is dependent on circulating AII (arterial pressure; mammals and man): lower arterial pressure in mammals and man; effect of oral doses (arterial pressure; oral): ineffective; duration of pharmacological effects (arterial pressure; parenteral administration): relatively short-lasting; antagonism of the actions of AII (AII; pithed rats): one of the most potent competitive antagonists of the actions of AII; agonistic actions of its own (AII; rat, in vivo): possessed agonistic actions of its own
CCCCc1cnnn1Cc1ccc(-c2ccccc2C(=O)O)cc1 [Example 2]	1	≤ 10	≤ 100	

Second part, led by results:

IC50 (AII receptor) [µM]	SMILES	minimal effective dose (Renal Hypertensive Rats; [1]) [mg/kg]	minimal effective dose (Renal Hypertensive Rats; [2]) [mg/kg]	also measured
> 3	CCCc1cc(C=O)n(Cc2ccc(-c3ccccc3C(=O)O)cc2)n1 [Example 179, 5-Formyl-3-propyl-1-[(2'-carboxybiphenyl-4-yl)methyl]pyrazole]	> 30	> 30	
> 3	CCCc1ccc(C(=O)OCC)n1Cc1ccc(-c2ccccc2C(=O)O)cc1 [Example 278, Ethyl 5-n-propyl-1-[(2'-carboxybiphenyl-4-yl)methyl]pyrrole-2-carboxylate]	> 30	> 30	
0.72	C=CCCc1cc(COC)nn1Cc1ccc(-c2ccccc2C(=O)O)cc1 [Example 172, 3-Methoxymethyl-5-but-3-enyl-1-[(2'-carboxybiphenyl-4-yl)methyl]-pyrazole]	≤ 10	≤ 100	
> 3	CCCc1cc(CO)n(Cc2ccc(-c3ccccc3C(=O)O)cc2)n1 [Example 177, 5-Hydroxymethyl-3-propyl-1-[(2'-carboxybiphenyl-4-yl)methyl]pyrazole]	> 30	> 30	
6.7	CCCc1cc(COC)nn1Cc1ccc(-c2ccccc2C(=O)O)cc1 [Example 173, 3-Methoxymethyl-5-propyl-1-[(2'-carboxybiphenyl-4-yl)methyl]pyrazole]	≤ 10	≤ 100	
2.3	CCCc1cc(CO)nn1Cc1ccc(-c2ccccc2C(=O)O)cc1 [Example 176, 3-Hydroxymethyl-5-propyl-1-[(2'-carboxybiphenyl-4-yl)methyl]pyrazole]	> 30	> 30	
1.6	CCCc1ccc(C(=O)OCC)n1Cc1ccc(-c2ccccc2-c2nnn[nH]2)cc1 [Example 277, Ethyl 5-n-propyl-1-[2'-(1H-tetrazol-5-yl)biphenyl-4-yl-methyl]pyrrole-2-carboxylate]	≤ 10	≤ 100	
> 1	CCCc1cc(COC)n(Cc2ccc(-c3ccccc3C(=O)O)cc2)n1 [Example 174]	≤ 10	> 100	
9.5	CCCc1cc(C(=O)O)nn1Cc1ccc(-c2ccccc2C(=O)O)cc1 [Example 175, 3-Carboxy-5-propyl-1-[(2'-carboxybiphenyl-4-yl)methyl]pyrazole]	≤ 10		
4.1	CCCc1cc(C=O)nn1Cc1ccc(-c2ccccc2C(=O)O)cc1 [Example 178, 3-Formyl-5-propyl-1-[(2'-carboxybiphenyl-4-yl)methyl]pyrazole]	≤ 10	≤ 100	
> 12	CCCc1ccc(C(=O)O)n1Cc1ccc(-c2ccccc2C(=O)O)cc1 [Example 279, 5-n-Propyl-1-[(2'-carboxybiphenyl-4-yl)methyl]-pyrrole-2-carboxylic acid]	≤ 10	≤ 100	
7.3	CCCCc1cc(COC)n(Cc2ccc(-c3ccccc3C(=O)O)cc2)n1 [Example 170, 5-Methoxymethyl-3-butyl-1-[(2'-carboxybiphenyl-4-yl)methyl]pyrazole]	≤ 10	> 100	
